Laboratory results published in ChEMBL document CHEMBL1201862, “PubChem BioAssay data set” (2004).
Calls of active or inactive are those of the source.

Experiments:
[1] = cytotoxicity in HEK-293T cells, dose response, cytotoxicity control for TCR NF-kB inhibitor project, luminescence, T-cell screen hits (AID 489026); format: functional, cell-based;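 further: cells exposed to compound about 14 hours before the viability readout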
[2] = Shn3 3'UTR reporter inhibitors, dose response, cell-based, Clone20 osteoblasts, firefly luciferase, cherry-picked (AID 624132); format: functional;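 further: firefly luciferase luminescence from reporter carrying the Shn3 3'UTR in osteoblasts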
[3] = control 3'UTR Renilla luciferase suppression, dose response, counter-screen for Shn3 inhibitor project, cell-based, Clone20-Shn3RL, cherry-picked (AID 624133); format: functional
[4] = HepG2 cell cytotoxicity, dose response, cytotoxicity control for Shn3 inhibitor project, CellTiter-Glo, cherry-picked (AID 624134); format: functional, cell-based
Protein Wnt-3a = Protein Wnt-3a (Mus musculus, UniProt P27467); assay: Wnt3a-driven reporter signaling inhibition, dose response, selectivity assay for Gli-SUFU antagonist project, Wnt-LIGHT cells, luminescence (AID 651570); format: functional; conditions: read-out: IC50_Mean;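 further: Wnt-LIGHT reporter cells stimulated with conditioned medium from Wnt3a-producing cells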
[5] = biological target: T1, Mannose-6-phosphate isomerase (Homo sapiens, UniProt P34949); assay: human PMI inhibitors, high substrate, primary screen, biochemical, fluorescence intensity, high mannose 6-phosphate (AID 1220)
T1 sequence (P34949 whole entry): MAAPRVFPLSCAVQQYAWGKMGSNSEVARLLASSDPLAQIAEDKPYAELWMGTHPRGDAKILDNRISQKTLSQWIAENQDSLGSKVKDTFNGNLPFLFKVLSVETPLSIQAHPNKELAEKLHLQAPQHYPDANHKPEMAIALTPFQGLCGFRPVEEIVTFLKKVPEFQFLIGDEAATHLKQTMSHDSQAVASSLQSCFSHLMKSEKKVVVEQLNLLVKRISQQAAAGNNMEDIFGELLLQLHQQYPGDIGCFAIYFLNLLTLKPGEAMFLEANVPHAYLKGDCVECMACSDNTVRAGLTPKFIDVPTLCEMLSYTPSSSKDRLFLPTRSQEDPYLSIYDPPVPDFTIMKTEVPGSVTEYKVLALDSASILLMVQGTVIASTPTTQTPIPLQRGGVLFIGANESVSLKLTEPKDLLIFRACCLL

Beta-galactosidase = Beta-galactosidase (Escherichia coli, UniProt Q8VNN2); assay: Dose response counterscreen for EBI2 assay utilizing the enzyme, b-galactosidase.; format: functional
[6] = biological target: T2, Adenosylmethionine-8-amino-7-oxononanoate aminotransferase (Mycobacterium tuberculosis, UniProt P9WQ81); assay: Mycobacterium tuberculosis BioA enzyme inhibitor Measured in Biochemical System Using Plate Reader - 2163-02_Inhibitor_Dose_CherryPick_Activity.; format: functional, Mycobacterium tuberculosis UT205
T2 sequence (P9WQ81 whole entry): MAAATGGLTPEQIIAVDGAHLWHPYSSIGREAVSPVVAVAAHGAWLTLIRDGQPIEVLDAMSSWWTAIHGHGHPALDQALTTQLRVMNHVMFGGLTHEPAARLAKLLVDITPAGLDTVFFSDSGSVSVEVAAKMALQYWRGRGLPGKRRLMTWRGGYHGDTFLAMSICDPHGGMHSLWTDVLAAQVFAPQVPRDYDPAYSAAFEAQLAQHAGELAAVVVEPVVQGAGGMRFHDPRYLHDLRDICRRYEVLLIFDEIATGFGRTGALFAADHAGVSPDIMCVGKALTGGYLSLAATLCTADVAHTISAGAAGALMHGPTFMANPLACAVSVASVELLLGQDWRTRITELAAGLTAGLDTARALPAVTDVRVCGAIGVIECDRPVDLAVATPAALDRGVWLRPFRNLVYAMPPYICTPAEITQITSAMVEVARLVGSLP

[7] = biological target: T3, Carboxy-terminal domain RNA polymerase II polypeptide A small phosphatase 1 (Homo sapiens, UniProt Q9GZU7); assay: inhibitors of CTDSP1, concentration-response testing, biochemical assay, absorbance-based, actives from ultra-high-throughput screening (AID 540297); format: functional
T3 sequence (Q9GZU7 whole entry): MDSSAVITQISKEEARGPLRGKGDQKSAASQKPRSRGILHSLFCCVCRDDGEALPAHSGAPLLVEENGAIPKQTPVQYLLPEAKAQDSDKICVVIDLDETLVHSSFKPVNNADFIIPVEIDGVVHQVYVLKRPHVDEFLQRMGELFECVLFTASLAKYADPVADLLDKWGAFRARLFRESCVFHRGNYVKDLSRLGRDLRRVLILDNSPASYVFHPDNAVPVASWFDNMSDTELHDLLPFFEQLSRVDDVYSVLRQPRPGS

[8] = biological target: Induced myeloid leukemia cell differentiation protein Mcl-1 (Homo sapiens, UniProt Q07820); format: functional
[9] = biological target: Peroxisome proliferator-activated receptor gamma/Nuclear receptor coactivator 1 (Homo sapiens, UniProt P37231); format: functional;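 further: agonist potency as compounds enhance coactivator SRC-1 recruitment to PPARgamma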
[10] = biological target: Peroxisome proliferator-activated receptor gamma/Nuclear receptor coactivator 2 (Homo sapiens, UniProt P37231); format: functional;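 further: agonist potency for raising coactivator recruitment to the receptor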
[11] = biological target: Peroxisome proliferator-activated receptor gamma/Nuclear receptor coactivator 3 (Homo sapiens, UniProt P37231); format: functional;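 further: agonist potency for raising coactivator recruitment to the receptor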
cells [12] = format: functional, cell-based
cells [13] = format: functional, cell-based; remark: listed apart in the source
Large T antigen = Large T antigen (Simian virus 40, UniProt P03070); format: functional, Betapolyomavirus macacae;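 further: Confirmatory-stage PubChem screen for compounds that inhibit SV40 T antigen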
[14] = biological target: T4, Rac GTPase-activating protein 1 (Homo sapiens, UniProt Q9H0H5); assay: MgcRacGAP GTPase-activating activity inhibitors, confirmation, biochemical, ADP Hunter fluorescence, primary and confirmatory (AID 624330); format: functional
T4 sequence (Q9H0H5 whole entry): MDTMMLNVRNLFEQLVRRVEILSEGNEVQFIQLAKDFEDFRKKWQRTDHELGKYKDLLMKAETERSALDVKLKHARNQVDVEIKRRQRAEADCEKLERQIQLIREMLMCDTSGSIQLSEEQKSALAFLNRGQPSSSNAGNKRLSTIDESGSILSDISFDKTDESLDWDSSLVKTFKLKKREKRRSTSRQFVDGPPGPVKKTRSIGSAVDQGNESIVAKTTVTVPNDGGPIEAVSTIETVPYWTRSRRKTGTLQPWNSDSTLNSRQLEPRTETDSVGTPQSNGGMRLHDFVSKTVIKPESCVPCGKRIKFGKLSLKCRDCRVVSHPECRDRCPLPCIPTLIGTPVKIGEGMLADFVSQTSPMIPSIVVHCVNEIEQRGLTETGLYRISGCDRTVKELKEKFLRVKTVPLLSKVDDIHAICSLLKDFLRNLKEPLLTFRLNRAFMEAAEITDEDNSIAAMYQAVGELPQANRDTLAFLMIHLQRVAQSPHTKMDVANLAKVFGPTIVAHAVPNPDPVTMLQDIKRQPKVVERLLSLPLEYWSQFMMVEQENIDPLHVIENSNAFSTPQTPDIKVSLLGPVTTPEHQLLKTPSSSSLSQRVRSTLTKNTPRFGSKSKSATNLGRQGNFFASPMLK

Cytochrome P450 2C9 = Cytochrome P450 2C9 (Homo sapiens, UniProt P11712)

Chain of Beta-galactosidase (Q8VNN2 whole entry): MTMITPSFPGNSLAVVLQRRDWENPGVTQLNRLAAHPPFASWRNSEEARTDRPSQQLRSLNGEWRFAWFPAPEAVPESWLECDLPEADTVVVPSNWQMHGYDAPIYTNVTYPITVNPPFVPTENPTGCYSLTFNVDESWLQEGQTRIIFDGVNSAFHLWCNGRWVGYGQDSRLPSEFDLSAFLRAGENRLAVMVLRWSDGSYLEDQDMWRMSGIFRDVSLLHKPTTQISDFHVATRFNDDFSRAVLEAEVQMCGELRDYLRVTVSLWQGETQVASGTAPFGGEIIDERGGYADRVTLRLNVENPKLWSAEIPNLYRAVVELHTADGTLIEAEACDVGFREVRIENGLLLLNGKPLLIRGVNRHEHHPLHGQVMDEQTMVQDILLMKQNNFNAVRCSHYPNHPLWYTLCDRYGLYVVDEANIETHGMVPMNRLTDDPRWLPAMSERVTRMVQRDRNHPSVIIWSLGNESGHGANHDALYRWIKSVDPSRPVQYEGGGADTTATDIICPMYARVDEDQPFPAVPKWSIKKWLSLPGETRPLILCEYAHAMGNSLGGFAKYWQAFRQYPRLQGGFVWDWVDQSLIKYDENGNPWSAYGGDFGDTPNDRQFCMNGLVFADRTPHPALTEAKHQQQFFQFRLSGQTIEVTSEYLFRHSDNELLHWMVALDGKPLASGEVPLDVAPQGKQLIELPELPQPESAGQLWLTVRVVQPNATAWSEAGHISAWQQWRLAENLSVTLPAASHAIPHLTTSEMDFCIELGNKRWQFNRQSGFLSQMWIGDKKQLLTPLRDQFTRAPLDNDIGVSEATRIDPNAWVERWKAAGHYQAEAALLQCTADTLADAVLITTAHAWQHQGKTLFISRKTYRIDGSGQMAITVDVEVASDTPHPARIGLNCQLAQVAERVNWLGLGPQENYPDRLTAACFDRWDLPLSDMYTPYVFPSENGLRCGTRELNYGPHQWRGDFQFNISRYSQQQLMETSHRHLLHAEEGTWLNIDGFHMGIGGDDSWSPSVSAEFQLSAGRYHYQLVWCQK
Chain of Peroxisome proliferator-activated receptor gamma/Nuclear receptor coactivator 2 (P37231 whole entry): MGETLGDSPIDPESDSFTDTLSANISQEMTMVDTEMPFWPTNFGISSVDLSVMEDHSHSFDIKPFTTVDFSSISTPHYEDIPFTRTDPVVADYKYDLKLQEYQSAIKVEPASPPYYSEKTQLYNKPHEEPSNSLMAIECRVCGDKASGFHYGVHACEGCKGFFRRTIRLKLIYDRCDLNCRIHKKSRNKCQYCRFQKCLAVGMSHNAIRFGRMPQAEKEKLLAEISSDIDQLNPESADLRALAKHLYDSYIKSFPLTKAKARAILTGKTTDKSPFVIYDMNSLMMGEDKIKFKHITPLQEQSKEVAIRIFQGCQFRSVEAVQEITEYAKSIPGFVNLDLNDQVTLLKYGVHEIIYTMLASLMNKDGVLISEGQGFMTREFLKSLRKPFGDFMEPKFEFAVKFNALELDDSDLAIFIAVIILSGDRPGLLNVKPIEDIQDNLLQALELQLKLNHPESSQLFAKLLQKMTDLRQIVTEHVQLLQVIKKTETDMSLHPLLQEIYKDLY
Chain of Peroxisome proliferator-activated receptor gamma/Nuclear receptor coactivator 2 (Q15596 whole entry, further chain): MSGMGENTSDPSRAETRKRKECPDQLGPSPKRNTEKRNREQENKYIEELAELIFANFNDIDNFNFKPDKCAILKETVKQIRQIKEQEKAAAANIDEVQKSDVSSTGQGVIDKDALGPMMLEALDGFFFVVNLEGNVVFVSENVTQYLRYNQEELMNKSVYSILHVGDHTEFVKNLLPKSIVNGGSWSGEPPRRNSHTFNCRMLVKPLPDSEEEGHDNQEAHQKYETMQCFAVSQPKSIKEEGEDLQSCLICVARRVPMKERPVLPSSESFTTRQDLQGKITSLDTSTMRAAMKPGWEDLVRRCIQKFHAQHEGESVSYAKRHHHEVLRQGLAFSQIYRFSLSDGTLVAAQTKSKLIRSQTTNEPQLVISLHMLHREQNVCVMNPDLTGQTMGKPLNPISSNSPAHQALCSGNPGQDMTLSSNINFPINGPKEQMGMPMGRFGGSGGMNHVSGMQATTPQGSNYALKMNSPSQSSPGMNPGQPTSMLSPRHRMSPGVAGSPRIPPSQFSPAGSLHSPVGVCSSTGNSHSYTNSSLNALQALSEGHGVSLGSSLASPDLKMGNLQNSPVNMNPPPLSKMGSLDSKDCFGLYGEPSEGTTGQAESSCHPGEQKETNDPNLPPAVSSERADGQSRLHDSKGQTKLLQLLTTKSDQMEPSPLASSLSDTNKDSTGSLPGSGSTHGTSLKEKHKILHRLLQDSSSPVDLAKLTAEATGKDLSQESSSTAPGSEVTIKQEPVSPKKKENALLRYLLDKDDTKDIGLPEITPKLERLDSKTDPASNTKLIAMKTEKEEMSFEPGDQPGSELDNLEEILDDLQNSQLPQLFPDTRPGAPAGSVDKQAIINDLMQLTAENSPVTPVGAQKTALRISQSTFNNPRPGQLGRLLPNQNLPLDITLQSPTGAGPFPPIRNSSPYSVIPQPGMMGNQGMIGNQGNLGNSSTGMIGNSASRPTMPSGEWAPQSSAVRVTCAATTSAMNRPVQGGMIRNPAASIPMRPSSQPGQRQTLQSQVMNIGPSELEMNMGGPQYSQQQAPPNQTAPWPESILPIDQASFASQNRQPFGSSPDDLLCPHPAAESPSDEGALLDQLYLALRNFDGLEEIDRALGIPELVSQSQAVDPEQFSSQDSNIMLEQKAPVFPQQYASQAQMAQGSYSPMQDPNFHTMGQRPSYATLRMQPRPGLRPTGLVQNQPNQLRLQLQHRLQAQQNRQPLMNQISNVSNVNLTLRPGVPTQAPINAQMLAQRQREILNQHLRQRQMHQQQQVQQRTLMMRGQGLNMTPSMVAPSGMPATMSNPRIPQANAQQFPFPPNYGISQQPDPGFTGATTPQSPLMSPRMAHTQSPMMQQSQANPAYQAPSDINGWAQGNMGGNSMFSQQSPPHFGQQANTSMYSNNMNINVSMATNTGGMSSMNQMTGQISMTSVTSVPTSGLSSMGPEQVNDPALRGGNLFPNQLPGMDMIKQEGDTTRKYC
Chain of Peroxisome proliferator-activated receptor gamma/Nuclear receptor coactivator 3 (P37231 whole entry): as the sequence (P37231 whole entry) above
Chain of Peroxisome proliferator-activated receptor gamma/Nuclear receptor coactivator 3 (Q9Y6Q9 whole entry, further chain): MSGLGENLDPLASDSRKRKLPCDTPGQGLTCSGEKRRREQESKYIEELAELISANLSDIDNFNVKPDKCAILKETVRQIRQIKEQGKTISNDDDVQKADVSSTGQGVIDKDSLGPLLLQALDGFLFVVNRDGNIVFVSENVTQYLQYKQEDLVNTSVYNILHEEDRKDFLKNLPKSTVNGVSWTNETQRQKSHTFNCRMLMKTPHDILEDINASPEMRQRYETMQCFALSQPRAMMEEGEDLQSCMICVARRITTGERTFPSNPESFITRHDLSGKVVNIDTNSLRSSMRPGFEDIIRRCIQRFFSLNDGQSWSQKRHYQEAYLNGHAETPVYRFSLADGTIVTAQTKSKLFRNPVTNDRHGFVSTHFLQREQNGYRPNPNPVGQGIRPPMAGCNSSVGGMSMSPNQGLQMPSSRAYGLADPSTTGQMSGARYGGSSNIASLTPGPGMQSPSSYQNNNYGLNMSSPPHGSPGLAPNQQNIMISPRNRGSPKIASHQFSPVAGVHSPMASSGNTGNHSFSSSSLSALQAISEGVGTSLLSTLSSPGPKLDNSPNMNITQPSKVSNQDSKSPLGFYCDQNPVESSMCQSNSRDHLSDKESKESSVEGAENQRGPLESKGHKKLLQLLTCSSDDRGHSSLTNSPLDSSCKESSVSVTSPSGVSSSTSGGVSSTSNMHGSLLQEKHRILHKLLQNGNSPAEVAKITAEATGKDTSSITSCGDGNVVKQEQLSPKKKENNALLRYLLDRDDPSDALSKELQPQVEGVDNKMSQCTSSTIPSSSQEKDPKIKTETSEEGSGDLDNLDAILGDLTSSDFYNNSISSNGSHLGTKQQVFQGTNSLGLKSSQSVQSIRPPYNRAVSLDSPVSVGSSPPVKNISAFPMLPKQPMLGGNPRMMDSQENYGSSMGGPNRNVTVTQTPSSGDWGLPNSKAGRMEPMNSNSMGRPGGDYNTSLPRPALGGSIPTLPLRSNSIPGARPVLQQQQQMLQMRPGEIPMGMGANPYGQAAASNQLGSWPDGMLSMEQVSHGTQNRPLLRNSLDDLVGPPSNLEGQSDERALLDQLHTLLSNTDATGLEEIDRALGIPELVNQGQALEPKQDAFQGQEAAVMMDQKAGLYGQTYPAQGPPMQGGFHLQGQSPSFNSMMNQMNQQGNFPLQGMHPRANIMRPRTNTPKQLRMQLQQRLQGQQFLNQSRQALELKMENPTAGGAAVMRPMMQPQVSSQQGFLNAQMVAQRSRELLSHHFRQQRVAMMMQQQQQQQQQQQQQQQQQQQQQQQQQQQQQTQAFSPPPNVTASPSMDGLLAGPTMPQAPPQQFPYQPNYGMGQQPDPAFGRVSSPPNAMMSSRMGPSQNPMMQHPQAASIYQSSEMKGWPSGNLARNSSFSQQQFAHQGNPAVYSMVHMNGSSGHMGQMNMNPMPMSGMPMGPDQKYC

For CCCCc1ccc(NC(=O)C(=O)NCCN2CCN(Cc3ccc([N+](=O)[O-])cc3)CC2)cc1, the IC50 [1] was > 80 µM (inactive), the AC50 [2] was 1.13 µM (active) and the AC50 [3] was 4.92 µM (active). The AC50 [4] was 64.2 µM (active) and the IC50 (Protein Wnt-3a) was 1.8 µM (active).
For CCOc1ccc(NC(S)=Nc2cccc3cnccc23)cc1, the IC50 [5] was > 50 µM (not active).
For O=C(/C=C/c1ccc(Cl)cc1)N1CCN(CCN2C(=O)c3cccc4cccc(c34)C2=O)CC1, the IC50 (Beta-galactosidase) was > 80 µM (inactive).
In the case of COC(=O)c1c(C(=O)OC)c(-c2cccc(F)c2)n2c1C[S+]([O-])C2 (stereo not drawn), the AC50 [6] is reported as 659 nM (active).
With NC(=S)n1[nH]c(-c2ccc([N+](=O)[O-])cc2)c(/N=N/c2ccccc2[N+](=O)[O-])c1=O the IC50 [7] was 1.46 µM (active) and the IC50 [8] was 23.2 µM (active).
In the case of CN(CP(=O)(O)CN(C)S(C)(=O)=O)S(C)(=O)=O, the EC50 [9] is reported as > 79.4 µM (not active), the EC50 [10] is reported as > 79.4 µM (not active) and the EC50 [11] is reported as > 79.4 µM (not active).
For CCOC(=O)[C@]12CCC=C1N(CCC1=CCCCC1)C(=O)[C@H](CC(=O)NCCc1ccccc1OC)C2, the EC50 (cells [12]) was > 29.9 µM (inactive) and the IC50 (cells [13]) was > 29.9 µM (inactive).
For O=C(N/N=C/c1ccc(O)cc1)c1csc2ccccc12, the EC50 [9] was > 79.4 µM (not active), the IC50 (Large T antigen) was 13.3 µM (active) and the IC50 [14] was 42.3 µM (active). The EC50 [10] was > 79.4 µM (not active), the EC50 [11] was > 79.4 µM (not active) and the AC50 (Cytochrome P450 2C9) was “inconclusive”.
In the case of COc1ccc(/C=N/N=C/c2cnc(O)c(C#N)c2Nc2ccccc2)cc1, the IC50 (Beta-galactosidase) is reported as > 80 µM (inactive).
For COC(=O)c1ccc(/N=c2\sc(C(=O)OC)cc(=O)n2C)cc1, the IC50 (Beta-galactosidase) was > 80 µM (inactive).
